Data: PubChem BioAssay (NCI)
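Results reflect a 48-hour exposure of cells in 96-well plates to compound at five concentrations. TGI: concentration producing complete growth inhibition.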

Legend:
Test in all cases: NCI-60 cell line screen, 48 h
[1] = system: BT-549 breast
[2] = system: SNB-19 CNS
[3] = system: MDA-MB-435
[4] = system: OVCAR-5 ovarian
[5] = system: M14 melanoma
[6] = system: ACHN renal
[7] = system: SK-MEL-5 melanoma
[8] = system: HT29 colon
[9] = system: KM12 colon
[10] = system: DU-145 prostate
[11] = system: T-47D breast
[12] = system: UACC-257 melanoma
[13] = system: UO-31 renal
[14] = system: RXF 393 renal
[15] = system: CAKI-1 renal
[16] = system: MOLT-4 leukemia
[17] = system: HCT-15 colon
[18] = system: SF-295 CNS
[19] = system: EKVX NSCLC
[20] = system: HCT-116 colon
[21] = system: MALME-3M melanoma
[22] = system: SK-OV-3 ovarian
[23] = system: A549 NSCLC
[24] = system: SF-539 CNS
[25] = system: HOP-92 NSCLC
[26] = system: TK-10 renal
[27] = system: SK-MEL-2 melanoma
[28] = system: SN12C renal
[29] = system: LOX IMVI melanoma
[30] = system: OVCAR-3 ovarian
[31] = system: SF-268 CNS
[32] = system: UACC-62 melanoma
[33] = system: MDA-N
[34] = system: MCF7 breast
[35] = system: SW-620 colon
[36] = system: K-562 leukemia
[37] = system: U251 CNS
[38] = system: A498 renal
[39] = system: NCI-H460 lung
[40] = system: 786-0 renal
[41] = system: COLO 205 colon
[42] = system: OVCAR-8 ovarian
[43] = system: SNB-75 CNS
[44] = system: NCI/ADR-RES ovarian
[45] = system: CCRF-CEM leukemia
[46] = system: HS 578T breast
[47] = system: SK-MEL-28 melanoma
[48] = system: NCI-H226 lung
[49] = system: NCI-H23 lung
[50] = system: IGROV1 ovarian
[51] = system: PC-3 prostate
[52] = system: HL-60(TB) leukemia
[53] = system: MDA-MB-231 breast
[54] = system: RPMI-8226 leukemia
[55] = system: OVCAR-4 ovarian
[56] = system: HOP-62 NSCLC
[57] = system: HCC-2998 colon
[58] = system: NCI-H522 lung

Question: `CC1C2(C)OCC(C#N)(C(=N)O2)C1(C#N)C#N` (stereo not given) was tested. Which TGI [1] did it give?
Answer: > 100 µM

Question: And the TGI [2]?
Answer: > 100 µM

Question: And the TGI [3]?
Answer: > 100 µM

Question: And the TGI [4]?
Answer: 85.6 µM

Question: What about the TGI [5] of the same compound?
Answer: 39.2 µM

Question: And the TGI [6]?
Answer: > 100 µM

Question: What about the TGI [7] of the same compound?
Answer: 23.4 µM

Question: What about the TGI [8] of the same compound?
Answer: 35.3 µM

Question: What about the TGI [9] of the same compound?
Answer: > 100 µM

Question: And the TGI [10]?
Answer: 74.3 µM

Question: What about the TGI [11] of the same compound?
Answer: 30.2 µM

Question: What about the TGI [12] of the same compound?
Answer: 71.2 µM

Question: And the TGI [13]?
Answer: > 100 µM

Question: And the TGI [14]?
Answer: 65.7 µM

Question: What about the TGI [15] of the same compound?
Answer: 25 µM

Question: And the TGI [16]?
Answer: > 100 µM

Question: What about the TGI [17] of the same compound?
Answer: 26.3 µM

Question: What about the TGI [18] of the same compound?
Answer: > 100 µM

Question: What about the TGI [19] of the same compound?
Answer: 52.7 µM

Question: What about the TGI [20] of the same compound?
Answer: 42.1 µM

Question: And the TGI [21]?
Answer: 51.8 µM

Question: What about the TGI [22] of the same compound?
Answer: > 100 µM

Question: And the TGI [23]?
Answer: > 100 µM

Question: And the TGI [24]?
Answer: 57.3 µM

Question: What about the TGI [25] of the same compound?
Answer: 48.9 µM

Question: What about the TGI [26] of the same compound?
Answer: > 100 µM

Question: What about the TGI [27] of the same compound?
Answer: 33.5 µM

Question: What about the TGI [28] of the same compound?
Answer: 29.1 µM

Question: And the TGI [29]?
Answer: 40.4 µM

Question: What about the TGI [30] of the same compound?
Answer: 28.4 µM

Question: And the TGI [31]?
Answer: 74.3 µM

Question: And the TGI [32]?
Answer: 76.1 µM

Question: And the TGI [33]?
Answer: 41.7 µM

Question: What about the TGI [34] of the same compound?
Answer: 52.3 µM

Question: What about the TGI [35] of the same compound?
Answer: > 100 µM

Question: And the TGI [36]?
Answer: > 100 µM

Question: What about the TGI [37] of the same compound?
Answer: 40.4 µM

Question: What about the TGI [38] of the same compound?
Answer: > 100 µM

Question: What about the TGI [39] of the same compound?
Answer: 42.2 µM

Question: What about the TGI [40] of the same compound?
Answer: 55.3 µM

Question: And the TGI [41]?
Answer: 27.8 µM

Question: What about the TGI [42] of the same compound?
Answer: 84.2 µM

Question: What about the TGI [43] of the same compound?
Answer: > 100 µM

Question: What about the TGI [44] of the same compound?
Answer: > 100 µM

Question: What about the TGI [45] of the same compound?
Answer: > 100 µM

Question: What about the TGI [46] of the same compound?
Answer: 74.4 µM

Question: What about the TGI [47] of the same compound?
Answer: 97.6 µM

Question: What about the TGI [48] of the same compound?
Answer: > 100 µM

Question: What about the TGI [49] of the same compound?
Answer: 86.9 µM

Question: And the TGI [50]?
Answer: > 100 µM

Question: And the TGI [51]?
Answer: 83.3 µM

Question: What about the TGI [52] of the same compound?
Answer: 38.2 µM

Question: And the TGI [53]?
Answer: 42.8 µM

Question: Which results are given for `Cc1ccc(S[C@@H](C)[C@@](O)(C(N)=O)c2ccccc2)cc1`?
Answer: TGI [1]: > 100 µM; TGI [2]: > 100 µM; TGI [3]: > 100 µM; TGI [4]: > 100 µM; TGI [5]: > 100 µM; TGI [6]: > 100 µM; TGI [7]: 81.1 µM; TGI [8]: > 100 µM; TGI [9]: > 100 µM; TGI [10]: > 100 µM; TGI [11]: > 100 µM; TGI [12]: > 100 µM; TGI [13]: 30.2 µM; TGI [14]: > 100 µM; TGI [15]: 30.7 µM; TGI [16]: 33.3 µM; TGI [17]: > 100 µM; TGI [18]: 41.9 µM; TGI [19]: > 100 µM; TGI [20]: > 100 µM; TGI [21]: 42.8 µM; TGI [22]: > 100 µM; TGI [23]: > 100 µM; TGI [24]: 60.3 µM; TGI [25]: 37.6 µM; TGI [54]: 74.8 µM; TGI [26]: > 100 µM; TGI [27]: > 100 µM; TGI [28]: > 100 µM; TGI [29]: 33.7 µM; TGI [30]: > 100 µM; TGI [31]: > 100 µM; TGI [32]: > 100 µM; TGI [33]: > 100 µM; TGI [34]: > 100 µM; TGI [35]: > 100 µM; TGI [36]: 44.5 µM; TGI [37]: > 100 µM; TGI [55]: 46.3 µM; TGI [56]: 62.6 µM; TGI [39]: > 100 µM; TGI [40]: > 100 µM; TGI [57]: > 100 µM; TGI [41]: > 100 µM; TGI [42]: > 100 µM; TGI [43]: > 100 µM; TGI [44]: 49.5 µM; TGI [45]: 26.2 µM; TGI [46]: > 100 µM; TGI [47]: > 100 µM; TGI [48]: > 100 µM; TGI [49]: > 100 µM; TGI [58]: 33 µM; TGI [50]: 15.5 µM; TGI [51]: > 100 µM; TGI [52]: > 100 µM; TGI [53]: 46 µM
